Source: patent publication US10577362B2, “Substituted 2, 4-diamino-quinoline derivatives for use in the treatment of proliferative diseases” (GENOSCIENCE PHARMA, priority 2016, dated 2020)

Experiments:
[1] = test system: PANC-1 (prancreatic carcinoma) cell line; experiment: CellTiter-Glo luminescent cell viability assay, PANC-1; format: cell-based; details: Homo sapiens, 72 h, % of signal of diluent-treated cultures; for viability at 4 µM: PANC-1, 4 μM; for viability at 10 µM: PANC-1, 10 μM
Description: All cell lines were maintained in medium containing 1% penicillin-streptomycin (Dutscher, P06-07100) and 10% Fetal Bovine Serum (Hyclone Dutscher, RZK35922) cultured at 37° C. with 5% CO2. HepG2 (hepatocellular carcinoma), cell line was cultured in Dulbecco's modified Eagle's medium low glucose (Gibco, 21885025), Huh7 (hepatocellular carcinoma), HCT-116 (colorectal carcinoma), PANC-1 (prancreatic carcinoma) and A375 (malignant melanoma) cell lines were cultured in Dulbecco's modified Eagle's medium (Dutscher, L0103). MOLM-14 (acute myeloid leukemia) cell line was maintained in MEM alpha medium (Gibco, 22561-021). 786-0 (renal adenocarcinoma) cell lines were maintained in RPMI 1640 medium (Dutscher, L0498).
Cell viability was measured using the CellTiter-Glo® luminescent cell viability assay as described by the manufacturer (Promega, Ref G7571) using an Infinite F200Pro luminometer (Tecan). Briefly, for adherent cells, cells were plated onto 96-well plates (white with clear bottom) in 90 μL of media per well and were allowed to grow overnight before the assay. For cells growing in suspension, cells were plated onto 96-well plates 1 h before the assay.
Compounds were resuspended in H2O or DMSO and added at different concentrations to each well, and cell cultures were incubated for 72 h. Each diluent (H2O or DMSO) were used as a control, and all compounds were tested in a constant percentage of H2O or DMSO. On the day of the reading, plates are equilibrated 30 min at room temperature before the addition of 100 μL of CellTiter-Glo® and luminescence was measured using an Infinite F200Pro (Tecan). % cell viability were expressed as a percentage of the signal obtained for cell cultures treated with diluent. EC50 values were determined as the dose of compound required to reduce luminescent values to 50% of the signal obtained for cell cultures treated with diluent. The experimental data were analyzed using a computer program, Graphpad Prism v5 (GraphPad Software, Inc. La Jolla, Calif.). All points were at least done in duplicate.

[2] = test system: HepG2 (hepatocellular carcinoma) cell line; experiment: CellTiter-Glo luminescent cell viability assay, HepG2; format: cell-based, human; details: Homo sapiens; for viability at 4 µM / viability at 10 µM: HepG2, HepG, 72 h; for viability at 4 µM: compound at 4 μM; for viability at 10 µM: compound at 10 μM
Procedure, shortened: (§1)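 Cells were cultured at 37 °C, 5% CO2 with 10% FBS; adherent lines were plated overnight, suspension MOLM-14 plated 1 h before dosing. Compounds in H2O or DMSO were added at various concentrations for 72 h, and viability was read by luminescence. EC50 is the dose reducing signal to 50% of diluent control.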

[3] = test system: 786-O (renal adenocarcinoma) cell line; experiment: CellTiter-Glo luminescent cell viability assay, 786-O; format: cell-based, human; details: Homo sapiens, 786-0; for viability at 4 µM / viability at 10 µM: 786-O, 72 h; for viability at 4 µM: compound at 4 μM; for viability at 10 µM: compound at 10 μM
Procedure, shortened: (§2)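 Adherent cells grow overnight, or suspension cells are seeded 1 h ahead; compound dilutions are then added and plates incubated 72 h at 37 °C. After 30 min at room temperature, CellTiter-Glo reagent is added and luminescence recorded. EC50 derives from signal relative to diluent control.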

[4] = test system: HCT-116 (colorectal carcinoma) cell line; experiment: CellTiter-Glo luminescent cell viability assay, HCT-116; format: cell-based, human; details: Homo sapiens; for viability at 4 µM: HCT-116, compound at 4 μM; for viability at 4 µM / viability at 10 µM: 72 h; for viability at 10 µM: HCT-116, compound at 10 μM
Procedure, shortened: as §2

[5] = test system: Huh7 (hepatocellular carcinoma) cell line; experiment: CellTiter-Glo luminescent cell viability assay, Huh7; format: cell-based, human; details: Homo sapiens, Huh-7; for viability at 4 µM: Huh7, compound at 4 μM; for viability at 4 µM / viability at 10 µM: 72 h; for viability at 10 µM: Huh7, compound at 10 μM
Procedure, shortened: as §1

[6] = test system: MOLM-14 (acute myeloid leukemia) cell line; experiment: CellTiter-Glo luminescent cell viability assay, MOLM-14; format: cell-based, human; details: Homo sapiens; for viability at 4 µM: MOLM-14, compound at 4 μM; for viability at 4 µM / viability at 10 µM: 72 h; for viability at 10 µM: MOLM-14, compound at 10 μM
Procedure, shortened: as §1

[7] = test system: A375 (malignant melanoma) cell line; experiment: CellTiter-Glo luminescent cell viability assay, A375; format: cell-based, human; details: Homo sapiens, A-375; for viability at 4 µM: A375, compound at 4 μM; for viability at 4 µM / viability at 10 µM: 72 h; for viability at 10 µM: A375, compound at 10 μM
Procedure, shortened: as §2

Row | EC50 ([2]; HepG2 cell line, 72 h incubation, CellTiter-Glo, read-out: EC50, growth inhibition of HepG2) [nM] | EC50 ([3]; 786-O cell line, 72 h incubation, CellTiter-Glo, read-out: EC50, growth inhibition of 786-O) [nM] | EC50 ([4]; HCT-116 cell line, 72 h incubation, CellTiter-Glo, read-out: EC50, growth inhibition of HCT-116) [nM] | EC50 ([5]; Huh7 cell line, 72 h incubation, CellTiter-Glo, read-out: EC50, growth inhibition of Huh7) [nM] | EC50 ([6]; MOLM-14 cell line, 72 h incubation, CellTiter-Glo, read-out: EC50, growth inhibition of MOLM-14) [nM] | EC50 ([7]; A375 cell line, 72 h incubation, CellTiter-Glo, read-out: EC50, growth inhibition of A375) [nM] | SMILES | viability at 4 µM [1] [%] | viability at 10 µM [1] [%] | viability at 4 µM [2] [%] | viability at 10 µM [2] [%] | viability at 4 µM [3] [%] | viability at 10 µM [3] [%] | viability at 4 µM [4] [%] | viability at 10 µM [4] [%] | viability at 4 µM [5] [%] | viability at 10 µM [5] [%] | viability at 4 µM [6] [%] | viability at 10 µM [6] [%] | viability at 4 µM [7] [%] | viability at 10 µM [7] [%]
1 |  |  |  |  |  |  | N#Cc1c(NCc2ccc(Cl)cc2)nc2ccccc2c1N1CCC(N2CCCC2)C1 (stereo not drawn) [Compound 148CN, 2-(4-chloro-benzylamino)-3-cyano-4-[3-(pyrrolidin-1-yl)pyrrolidin-1-yl]quinoline] | 102 | 100 | 104 | 91.9 | 88.2 | 67 | 93.5 | 92.2 | 91.9 | 80.8 | 92.9 | 94.7 | 94.1 | 93.2
2 |  |  |  |  |  |  | N#Cc1c(NCc2ccc(Cl)cc2)nc2ccccc2c1N1CCC(N2CCOCC2)C1 (stereo not drawn) [Compound 150CN, 2-(4-chloro-benzylamino)-3-cyano-4-(3-morpholino-pyrrolidin-1-yl)quinoline] | 101 | 101 | 100 | 103 | 96.1 | 91.4 | 99.5 | 95.1 | 93.8 | 90.4 | 109 | 114 | 97.9 | 96.8
3 |  |  |  |  |  |  | CC(C)(C)OC(=O)NC1CCCN(c2c(C#N)c(NCc3ccc(Cl)cc3)nc3ccccc23)C1 (stereo not drawn) [Compound 154CN] | 107 | 99 | 105 | 97.5 | 94.1 | 82.3 | 98.8 | 87.2 | 101 | 93.5 | 112 | 113 | 96.2 | 88.5
4 |  |  |  |  |  |  | CCN(CC)C1CCCN(c2c(C#N)c(NCc3ccc(Cl)cc3)nc3ccccc23)C1 (stereo not drawn) [Compound 160CN, 2-(4-chlorobenzylamino)-3-cyano-4-[3-(diethylamino)piperidin-1-yl]quinoline] | 99.6 | 75.3 | 94.5 | 48.3 | 94.9 | 40 | 86.4 | 47.3 | 89.5 | 62.3 | 106 | 94.5 | 86.6 | 47.9
5 | 500 to 5000 | 500 to 5000 | 500 to 5000 | 500 to 5000 | 500 to 5000 | 500 to 5000 | N#Cc1c(NCc2ccc(Cl)cc2)nc2ccccc2c1N1CCCC(NC2CCCC2)C1 (stereo not drawn) [Compound 162CN, 2-(4-chlorobenzylamino)-3-cyano-4-[3-(cyclopentylamino)piperidin-1-yl]quinoline] | 75.3 | 0.8 | 0.3 | 0.1 | 12 | 0.2 | 0.8 | 0.1 | 37.1 | 0.2 | 45.6 | 0.3 | 0.4 | 0.2
6 |  |  |  |  |  |  | N#Cc1c(NCc2ccc(Cl)cc2)nc2ccccc2c1N1CCCC(N2CCCC2)C1 (stereo not drawn) [Compound 176CN, 2-(4-chlorobenzylamino)-3-cyano-4-[3-(pyrrolidin-1-yl)piperidin-1-yl]quinoline] | 93.2 | 70.6 | 93 | 60.2 | 89.8 | 39.3 | 84.3 | 42.7 | 96.4 | 64.7 | 95.6 | 75.2 | 114 | 65.4
